We go through 1 compound from article PMC6272399, “Anti-Proliferative Effect and Induction of Apoptosis in Androgen-Independent Human Prostate Cancer Cells by 1,5-Bis(2-hydroxyphenyl)-1,4-pentadiene-3-one” (Molecules, 2015).

Bounds are passed on as bounds.

In assay [1] the test system is WRL 68 (human epithelial hepatocytes). Description: MTT cytotoxicity assay, normal WRL 68. In kind it is cell-based. Conditions: WRL68, normal cell line, 72 h treatment, mean ± SD, read-out: EC50 Values (µM) of Compounds on Cell Lines WRL-68. How it is done: (§1) Cell viability was determined by the MTT [3-(4,5-dimethylthiazol-2-yl)-2,5-diphenyltetrazolium bromide] assay, as previously described by Mosmann with modifications. Briefly, cells were detached from the tissue culture flask and pelleted by centrifugation at 1000 rpm for 5 min. Then, the density of the viable cells was counted using a haemocytometer. Cells were then plated in a 96-well flat bottom micro-titer plate (Nunc) at a concentration of 10^4 cells/mL and incubated in a 5% CO2 incubator at 37 °C overnight to allow the cells to adhere to the bottom of the wells. After 24 h, the media was aspirated off and replaced with fresh media containing sample compounds (curcumin and curcumin analogues) of seven different concentrations ranging from 1.56 µM–100 µM and incubated at 37 °C, 5% CO2 for 72 h. Separately, the sample compounds were prepared in a stock solution of 50 mM in 100% dimethyl sulfoxide (DMSO, Molecular Biology Grade, Sigma-Aldrich, St. Louis, MO, USA) and diluted in the culture media to a working concentration of 200 µM. Curcumin, the parent compound which was used as the positive control was also prepared in the similar manner. A two-fold serial dilution was done for each sample in triplicates down the columns of the plate, yielding a final volume and concentration of 100 µL in 0.2% DMSO in each wells. Following treatment, 50 µL MTT solutions (0.5 mg/mL in PBS) was added to each well and incubated for another 4 h at 37 °C in a humidified 5% CO2 incubator. The supernatant was replaced with 100 µL of DMSO and the optical density (OD) was measured at 570/650 nm using a micro-plate ELISA reader (Bio-Rad Laboratories, Hercules, CA, USA). The percentage of viable cells was calculated based on the ratio of the corrected absorbance of sample-treated cells to the corrected absorbance of the control (0.2% DMSO-treated cells) multiplied by 100. The percentage of cell viability was determined as follows: % Cell viability= OD of treated cells /OD of control ×100
(§2) For each compound tested, the EC50 value was generated from the log dose-response curves for each cell line using the Graphpad Prism version 5.04 for Windows (Graphpad Software, La Jolla, CA, USA). […] Cytotoxicity of each tested compound is expressed as the EC50 value. Based on the EC50 values, selectivity index (SX) value was also determined. Selectivity index is a special parameter applied as a selectivity indicator of tested compounds towards cancer cells. The SX represents the ratio of EC50 value obtained in toxicity testing using the normal cell lines to the EC50 values of the toxicity testing of the cancer cells, and then multiplied by 100. All the compounds were assessed for their potential toxicity against normal, non-cancerous cells. […] The SX values were calculated using the following equation: SX = EC50 (normal cells)/EC50 (cancer cells) × 100
For orientation: Tetrazolium assays rely on reduction of a dye to a coloured formazan, in cell work by metabolically active cells.

Assay [2] has as its system PC-3 cells. Description: AO/EB double staining, morphology and quantification of apoptotic and necrotic cells, PC-3. In kind it is cell-based, human. How it is done: (§3) Cell morphological changes were assessed by the differential staining DNA-intercalate fluorescent dyes acridine orange (AO) and ethidium bromide (EB). Cells (3 × 10^5) were seeded in a 6-well tissue culture plates, treated with MS17 at various concentrations (EC50, 2 × EC50, 3 × EC50) and incubated for 12, 24, 48 and 72 h time intervals. After incubation, cell pellets were suspended in 50 µL of cold PBS. To each samples, 10 µL of cell suspension was added with 1 µL of AO/EB dye mixture (1 part of 100 µg/mL of AO in PBS; 1 part of 100 µg/mL of EB in PBS) prior to microscopic examination. Ten microliter of the cell suspension mixed with the dye mixture was placed on a glass microscopic slide covered with a cover slip and was observed and photographed with a fluorescence microscope using a fluorescein filter (BX41, Olympus, Center Valley, PA, USA). A minimum of 200 total targeted cells were counted per sample and the percentage of cells from each population (viable, early apoptosis, late apoptosis and necrosis) was calculated. The experiment was conducted in triplicates. Untreated cells containing DMSO alone were used as negative control.

Assay [3] concerns PC-3 cells. Briefly: Free nucleosome detection (Cell Death Detection ELISA), PC-3. In kind it is cell-based, human. The following applies: PC-3, 9.0 and 13.5 µM, 24, 48 and 72 h. How it is done:
(§4) To confirm the presence of histone-bound DNA fragments (free nucleosomes) in the prostate cancer cells after the treatment of MS17, Cell Death Detection ELISA^PLUS kit (Roche Diagnostics) was used according to the manufacturer’s protocol. Cells were plated on a bottom flat tissue culture plates at a concentration of 10^5 cells per well and incubated for 24 h to allow the cells to adhere. After overnight incubation, MS17 at various concentrations (EC50, 2 × EC50, 3 × EC50) were added to a final volume of 100 µL per well and further incubated for 24, 48 and 72 h. The plate was centrifuged at 600 rpm at 4 °C for 10 min. The cell pellet containing the apoptotic bodies was resuspended in lysis buffer and incubated for 30 min at room temperature. […] The amount of nucleosomes retained by the POD in the immunocomplex, corresponding to the extent of apoptosis and necrosis, was determined with 2,2'-azinobis-3-ethyl-benzothiazoline-6-sulfonic acid (ABTS) as substrate using a micro-plate ELISA reader at a wavelength of 405/490 nm. The amount of enrichment of mono- and oligonucleosomes released into the cytoplasm was calculated using the following formula: Enrichment factor= Absorbance of sample/Absorbance of control
On the technique in general: An ELISA detects its analyte on a solid surface through an enzyme-linked reagent.

Assay [4] relates to DU 145 cells. Description: AO/EB double staining, morphology and quantification of apoptotic and necrotic cells, DU 145. In kind it is cell-based, human. Conditions: for necrotic cells: approximate. How it is done: as §3
Assay [5] has as its system androgen-dependent prostate cancer cells. More on the design: method as in PMID 21796654. Conditions: cited from earlier work.
Assay [6] concerns DU 145 cells. Briefly: MTT cytotoxicity (cell viability) assay, DU 145. In kind it is cell-based, human. How it is done: as §1, §2
Assay [7] relates to DU 145 cells. Briefly: Free nucleosome detection (Cell Death Detection ELISA), DU 145. The following applies: DU 145, 8.4 µM compared with 4.2 and 12.6 µM, all time points. The assay is classed as cell-based, human. How it is done:
as §4

Assay [8] has as its system WI-38 (human lung fibroblast cells). Briefly: MTT cytotoxicity assay, normal WI-38. In kind it is cell-based. The following applies: normal cell line, 72 h treatment, mean ± SD, read-out: EC50 Values (µM) of Compounds on Cell Lines WI-38. How it is done:
as §1, §2

The term EC50 denotes the midpoint of the concentration-response curve. Consider `O=C(C=Cc1ccccc1O)C=Cc1ccccc1O` [MS17, 1,5-bis(2-hydroxyphenyl)-1,4-pentadiene-3-one], for which the EC50 came to 5.5 ± 0.5 µM in assay [1]; 4.1 ± 0.8 µM in the assay with DU 145 cells [6] (Homo sapiens, DU-145, MTT, 72 h treatment, mean ± SD, three experiments, read-out: EC50 Values (µM) of Compounds on Cell Lines DU 145); 5.2 ± 1.2 µM in assay [8]. In addition, the “morphological observation of cell nuclei (AO/EB)” value is “typical signs of apoptosis such as cell shrinkage, formation of apoptotic bodies and membrane blebbing” in the assay on PC-3 cells [2] (PC-3, MS17-treated vs untreated); “typical signs of apoptosis such as cell shrinkage, formation of apoptotic bodies and membrane blebbing” in the assay with DU 145 cells [4] (DU 145, MS17-treated vs untreated). For the same compound, the necrotic cells result in the assay with PC-3 cells [2] (PC-3, all three doses, 12 and 24 h) was “less than 5%”; in the assay with DU 145 cells [4] (DU 145, 4.2 µM, 48 h), “approximately 10%”; in the assay on DU 145 cells [4] (DU 145, all examined doses, 24 h), < 5%. The “nucleosomal fragments (enrichment factor)” value with PC-3 cells [3] and in the assay on DU 145 cells [7] was “significant increase in nucleosomal fragments” throughout. Further, the anti-androgenic effect entry in assay [5] was “exert anti-androgenic effect”. Besides, the “dose from which decrease in cell viability is significant” value in the assay on DU 145 cells [6] (DU 145, MTT, vs untreated) was 6.3 µM. In the assay on DU 145 cells [6] (SX = EC50 (WI-38)/EC50 (DU 145) × 100), the “Selective index (SX) WI-38 vs DU 145” value turned out to be 126.3. For the same compound, the “Selective index (SX) WRL68 vs DU 145” value with DU 145 cells [6] (SX = EC50 (WRL68)/EC50 (DU 145) × 100) amounted to 134.3.
